Assay results taken from patent publication EP0250134B1, “Method for combating swine dysentery” (IMCERA Group Inc., priority 1986, dated 1987).
In brackets after ≈: the same amount, converted by molar mass. Where a name gives a salt, the structure may show the parent alone. Read-outs that look alike come from different tables or passages of the source.

Test system: Treponema hyodysenteriae
Experiment: in vitro Streak Plate Test Method (inhibition endpoint / MIC on trypticase soy blood agar)
Format: cell-based
Conditions: for Inhibition Endpoints / MIC: first number = growth occurred, second = no growth, 48 hrs at 39°C anaerobic; for MIC: Brachyspira hyodysenteriae, 48 h
Protocol: The following test procedure was used to evaluate the anti-Treponema hyodysenteriae activity of the compounds in the present invention. This test procedure establishes the lowest concentration of the compounds that will inhibit the growth on cultures of Treponema hyodysenteriae in an in vitro Streak Plate Test Method.
Procedure: Stock solutions containing 10,000, 1,000, 100, 10, 1.0, and 0.1, micrograms per milliliters of the compound to be tested were prepared. The final dilutions to establish the test concentrations in the media were made by placing the correct volume of stock solution in a petri dish, adding the media (trypticase soy blood agar), and mixing before the media solidified. After the media solidified, the test cultures of Treponema hyodysenteriae were streaked onto the surface of the agar. Petri dishes containing media without test samples were also set up as culture controls and are inoculated in the same manner. All inoculated plates were incubated at 39°C in anaerobic jars for 48 hrs. Inhibition endpoints were then determined by observing the test plates for growth or no growth of the test cultures at the various concentrations of the compounds. If the culture growth occured at one concentration but not at the next higher concentration, the inhibitory endpoint or MIC (Minimum Inhibitory Concentration) was considered the higher concentration.
Referring to Table 1, the culture numbers refer to field isolate strains of Treponema hyodysenteriae. These field isolates were isolated in Illinois, Iowa, and Nebraska. The numbers giving the results in the Table are read as follows: the first number for each isolate and compound tested corresponds to the concentration in micrograms per milliliter where growth occurred and the second number corresponds to the concentration in micrograms per milliliter where no growth occurred.

[1] = Culture No. 8064 (field isolate)
[2] = Culture No. 8072 (field isolate)
[3] = Culture No. 8076 (field isolate)
[4] = Culture No. 8080 (field isolate)
[5] = Culture No. 8087 (field isolate)
[6] = Culture No. 8098 (field isolate)
[7] = Culture No. 8125 (field isolate)
[8] = Culture No. B-100 (field isolate)
[9] = Culture No. B-140 (field isolate)

Compound	Inhibition Endpoints [1]	Inhibition Endpoints [2]	Inhibition Endpoints [3]	Inhibition Endpoints [4]	Inhibition Endpoints [5]	Inhibition Endpoints [6]	Inhibition Endpoints [7]	Inhibition Endpoints [8]	Inhibition Endpoints [9]	further results
Co Lysocellin	.05-.1 µgs/ml	<.01 µgs/ml	.05-.1 µgs/ml	.05-.1 µgs/ml	.05-.1 µgs/ml	.05-.1 µgs/ml	<.01 µgs/ml	<.01 µgs/ml	<.01 µgs/ml	
CCC(C(=O)C(C)C(O)C(C)CCc1ccc(C)c(O)c1C(=O)O)C1OC(CC)(C2CCC(O)(CC)C(C)O2)CC1C (centres unmarked) [Lasalocid Na, reference compound]										MIC (Culture No. 8064 (field isolate), read-out: Inhibition Endpoints): 1 to 5 µg/mL (≈ 1.69 to 8.46 µM); MIC (Culture No. 8072 (field isolate), read-out: Inhibition Endpoints): 1 to 5 µg/mL (≈ 1.69 to 8.46 µM); MIC (Culture No. 8076 (field isolate), read-out: Inhibition Endpoints): 1 to 5 µg/mL (≈ 1.69 to 8.46 µM); MIC (Culture No. 8080 (field isolate), read-out: Inhibition Endpoints): 0.5 to 1 µg/mL (≈ 0.846 to 1.69 µM); MIC (Culture No. 8087 (field isolate), read-out: Inhibition Endpoints): 1 to 5 µg/mL (≈ 1.69 to 8.46 µM); MIC (Culture No. 8098 (field isolate), read-out: Inhibition Endpoints): 1 to 5 µg/mL (≈ 1.69 to 8.46 µM); MIC (Culture No. 8125 (field isolate), read-out: Inhibition Endpoints): 1 to 5 µg/mL (≈ 1.69 to 8.46 µM); MIC (Culture No. B-100 (field isolate), read-out: Inhibition Endpoints): 0.5 to 1 µg/mL (≈ 0.846 to 1.69 µM); MIC (Culture No. B-140 (field isolate), read-out: Inhibition Endpoints): 1 to 5 µg/mL (≈ 1.69 to 8.46 µM)
Zn Lysocellin	.1-.5 µgs/ml	.1-.5 µgs/ml	.1-.5 µgs/ml	.1-.5 µgs/ml	.05-.1 µgs/ml	.1-.5 µgs/ml	.05-.1 µgs/ml	.05-.1 µgs/ml	.05-.1 µgs/ml	
Carriomycin Na [reference compound]	.01-.05 µgs/ml	<.01 µgs/ml	<.01 µgs/ml	.01-.05 µgs/ml	.01-.05 µgs/ml	<.01 µgs/ml	<.01 µgs/ml			activity compared to the controls (summary of Table 1): comparable activity
Mn Lysocellin	.1-.5 µgs/ml	.1-.5 µgs/ml	.1-.5 µgs/ml	.1-.5 µgs/ml	.1-.5 µgs/ml	.1-.5 µgs/ml	.1-.5 µgs/ml	.1-.5 µgs/ml	.1-.5 µgs/ml	
Cu Lysocellin	.1-.5 µgs/ml	.05-.1 µgs/ml	.05-.1 µgs/ml	.1-.5 µgs/ml	.1-.5 µgs/ml	.05-.1 µgs/ml	.1-.5 µgs/ml	.1-.5 µgs/ml	.1-.5 µgs/ml	
Lysocellin Free Acid	.1-.5 µgs/ml	.01-.05 µgs/ml	<.01 µgs/ml	.1-.5 µgs/ml	.05-.1 µgs/ml	.05-.1 µgs/ml	.01-.05 µgs/ml	.01-.05 µgs/ml	.01-.1 µgs/ml	
CCC[C@@H]1C[C@@H](C(=O)N[C@@H]([C@H]2O[C@H](SC)[C@H](O)[C@@H](O)[C@H]2O)[C@@H](C)O)N(C)C1 [Lincomycin HCL, reference compound]										MIC (read-out: Inhibition Endpoints, Culture No. 8064 (field isolate)): 10 to 50 µg/mL; MIC (read-out: Inhibition Endpoints, Culture No. 8072 (field isolate)): 10 to 50 µg/mL; MIC (read-out: Inhibition Endpoints, Culture No. 8076 (field isolate)): 10 to 50 µg/mL; MIC (read-out: Inhibition Endpoints, Culture No. 8080 (field isolate)): 10 to 50 µg/mL; MIC (read-out: Inhibition Endpoints, Culture No. 8087 (field isolate)): 10 to 50 µg/mL; MIC (read-out: Inhibition Endpoints, Culture No. 8098 (field isolate)): 10 to 50 µg/mL; MIC (read-out: Inhibition Endpoints, Culture No. 8125 (field isolate)): 10 to 50 µg/mL; MIC (read-out: Inhibition Endpoints, Culture No. B-100 (field isolate)): 1 to 5 µg/mL; MIC (read-out: Inhibition Endpoints, Culture No. B-140 (field isolate)): 0.05 to 0.1 µg/mL
Lysocellin Na	.1-.5 µgs/ml	.1-.5 µgs/ml	.1-.5 µgs/ml	.1-.5 µgs/ml	.1-.5 µgs/ml	.1-.5 µgs/ml	.1-.5 µgs/ml	.1-.5 µgs/ml	.1-.5 µgs/ml	
Ni Lysocellin	.05-.1 µgs/ml	<.01 µgs/ml	.05-.1 µgs/ml	.1-.5 µgs/ml	.05-.1 µgs/ml	.05-.1 µgs/ml	<.01 µgs/ml	<.01 µgs/ml	<.01 µgs/ml	
Na Zn Lysocellin	1.0-5.0 µgs/ml	1.0-5.0 µgs/ml	1.0-5.0 µgs/ml	.5-1.0 µgs/ml	1.0-5.0 µgs/ml	.1-.5 µgs/ml	1.0-5.0 µgs/ml	1.0-5.0 µgs/ml	1.0-5.0 µgs/ml	
